# Experimental data as given in PMC3907537, “Evaluation of the Endothelin Receptor Antagonists Ambrisentan, Bosentan, Macitentan, and Sitaxsentan as Hepatobiliary Transporter Inhibitors and Substrates in Sandwich-Cultured Human Hepatocytes” (PLoS ONE, 2014).
# Columns and labels:
# NTCP = test system: NTCP; parameters: method as in PMID 20628435; conditions: concentrations tested 2, 20, and 100 µM, Hartman et al. ref 29; cited from earlier work
# [1] = test system: sandwich-cultured human hepatocytes; test: Effect of ERAs on endogenous glycocholic acid (GCA) distribution in sandwich-cultured human hepatocytes; type: cell-based; conditions: 24 h, mean ± standard error, n=3 human livers
# Experimental: Sandwich-cultured human hepatocytes were obtained from Celsis/IVT (Baltimore, MD) or Life Technologies (Durham, NC). Donors were male (n = 3) and female (n = 1) between the ages of 31 and 62 years old. Hepatic uptake, biliary excretion and in vitro biliary clearance (Clb) were determined using the B-CLEAR® hepatocyte sandwich culture model as described by Liu et al., 1999 [34]. In this system, hepatocytes form functional bile canalicular networks while maintaining the expression and function of key uptake and efflux transporters. The canalicular system of bile pockets remains separate from the cellular culture media due to tight junctions between cells. The integrity of these tight junctions is maintained in the presence of calcium (Plus (+) buffer) while in the absence of calcium (Minus (−) buffer), these tight junctions open and release the contents of the canalicular network into the media.
# Incubation solutions containing ERA (1, 10 and 100 µM) were prepared in cell culture medium. On the sixth day of culturing of the sandwich-cultured hepatocytes, cell culture medium was removed from the wells and incubation solutions containing the test ERAs were added to the cells. The cells were incubated with ERA solution for 24 h at 37°C. After the exposure, the incubation solutions were removed and the cells were rinsed with Plus (+) or Minus (−) buffer. The buffer solutions were then removed and the cells were incubated with fresh Plus (+) or Minus (−) buffer for 5 min at 37°C. Following this 5 minute incubation, the buffer solutions were collected and any remaining buffers were removed. The cells were then washed three times with ice-cold Plus (+) buffer and the plates were frozen at −80°C until processed for bioanalysis.
# Study samples were stored in their original 24-well plates at −80°C until prepared for analysis. A volume of 500 µL of cell lysis solution (70∶30 methanol:water) containing 25 nM internal standard was added to each well and mixed for 20 min of mixing. The volume in each well was then transferred to a 96-well filter plate stacked on a Greiner deep well collection plate. The filter plate/collection plate was then centrifuged at 2000 rcf for 5 min. The filtrate was then evaporated to dryness under nitrogen. Samples were reconstituted in 200 µL of sample diluent (60∶40 methanol:10 mM ammonium acetate, native pH), sealed, and placed on a plate shaker for 15 min. These samples were then transferred to a Whatman 96-well 0.45 µm PVDF filter plate stacked on a Costar 3956 plate (HPLC injection plate), centrifuged at 2000 rcf for 2–3 min, and sealed with a silicon cap mat prior to LC-MS/MS analysis. d8-TCA standard spiking solutions were prepared in 50∶50 methanol:water. For a given lysate standard or control, 10 µL was added to each well of a previously frozen analytical plate. Standards representing 0.5–100 pmoles/well and QC’s at the LLQ and ULQ were prepared. These lysate standards and controls were then further processed as described above for unknown study samples. Prepared samples were filtered and analyzed by LC-MS/MS using a Shimadzu binary HPLC system (Columbia, MD) and tandem mass spectrometry using Thermo Electron TSQ® Quantum Discovery MAX™ (Waltham, MA) with an Ion Max ESI source operating in negative ion electrospray ionization mode. Results for unknowns and QCs were calculated using a standard curve based on an internal standard processing method.
# Statistical comparisons across ERA treatments were performed using analysis of variance (ANOVA) with Fisher’s PLSD post hoc analysis (Statview 5.0, SAS Institute, Cary NC); statistical significance was considered to be P<0.05. All mass values were normalized to mg protein by taking the average protein mass in the taurocholate plate determined using a BCA protein assay (Pierce Biotechnology, Rockford, IL). […]
SMILES,inhibition of NTCP (NTCP),GCA BEI (% Control) ([1]; 1 µM),GCA Cellular Accumulation (% Control) ([1]; 1 µM),GCA Medium Concentration (% Control) ([1]; 1 µM),GCA Total Accumulation (% Control) ([1]; 1 µM),GCA BEI (% Control) ([1]; 10 µM),GCA Cellular Accumulation (% Control) ([1]; 10 µM),GCA Medium Concentration (% Control) ([1]; 10 µM),GCA Total Accumulation (% Control) ([1]; 10 µM),GCA BEI (% Control) ([1]; 100 µM),GCA Cellular Accumulation (% Control) ([1]; 100 µM),GCA Medium Concentration (% Control) ([1]; 100 µM),GCA Total Accumulation (% Control) ([1]; 100 µM)
COC(c1ccccc1)(c1ccccc1)[C@H](Oc1nc(C)cc(C)n1)C(=O)O [ambrisentan],did not,90.3 ± 13.5,93.0 ± 9.3,101.0 ± 3.5,87.2 ± 10.8,75.4 ± 8.6,88.2 ± 15.5,91.3 ± 7.5,73.0 ± 8.4,65.9 ± 6.8,48.8 ± 10.8,95.7 ± 6.7,39.1 ± 11.9
COc1ccccc1Oc1c(NS(=O)(=O)c2ccc(C(C)(C)C)cc2)nc(-c2ncccn2)nc1OCCO [bosentan],inhibited,85.9 ± 12.6,78.4 ± 14.5,99.6 ± 2.1,71.9 ± 12.9,32.3 ± 30.1,55.1 ± 14.4,85.5 ± 6.3,35.9 ± 5.3,35.4 ± 13.9,25.6 ± 8.4,77.1 ± 10.1,17.4 ± 6.1
CCCNS(=O)(=O)Nc1ncnc(OCCOc2ncc(Br)cn2)c1-c1ccc(Br)cc1 [macitentan],–,96.9 ± 17.6,81.7 ± 10.7,101.0 ± 3.3,84.6 ± 12.6,54.9 ± 10.3,62.7 ± 10.5,88.9 ± 1.8,46.5 ± 8.3,39.4 ± 12.3,38.1 ± 13.6,52.6 ± 1.2,24.7 ± 7.8
Cc1cc2c(cc1CC(=O)c1sccc1S(=O)(=O)Nc1onc(C)c1Cl)OCO2 [sitaxsentan],inhibited,100.0 ± 18.3,90.9 ± 6.5,104.0 ± 8.1,98.6 ± 16.1,84.2 ± 6.0,69.8 ± 11.1,92.8 ± 3.8,60.3 ± 7.2,61.7 ± 12.2,18.6 ± 6.9,75.0 ± 3.5,14.4 ± 5.4
